Test results as given in patent publication US20220143183A1, “PHOTOSWITCHABLE PROTACS AND SYNTHESIS AND USES THEREOF” (New York University, priority 2019, published 2022).

Experiments:
RS4;11 lymphoblast cells = experiment: Cell viability assay (Promega MTS), dark or pulsed irradiation; assay type: cell-based, human; details: 72 h; for EC50: Homo sapiens
Protocol: Optical control of BRD2-4 with PHOTACs. To assess the biological activity of the PHOTACs, their effect on the viability of RS4;11 lymphoblast cells was tested. Cells were treated in a 96-well plate with increasing concentrations of PHOTACs and were either irradiated with 390 nm light pulses (100 ms every 10 s) for 72 h or incubated with the compound in the dark. Subsequently, cell viability assays (Promega MTS) were performed, as previously described.
Cell culture. The human acute lymphoblastic leukemia RS4;11 (ATCC® CRL-1873™) cell line was purchased from the American Type Culture Collection and cultured in RPMI1640 medium (Gibco) with 10% fetal bovine serum (FBS) and 1% penicillin/streptomycin (PS) in a humidified incubator at 37° C. with 5% CO2 in air. Cells were divided every 2-3 days and the concentration was maintained between 1×10^5 and 1×10^6 cells/mL. For the experiments compounds were serially diluted in RPMI160 without the dye phenol red (Gibco) to reduce the influence of the dye by absorption. Azobenzene stocks and dilutions were strictly kept in the dark and prepared under red light conditions.
Colorimetric MTT Assays. The activity of dehydrogenase enzymes in metabolically active cells, as a quantitative measurement for cytotoxicity and proliferation, was determined by colorimetric measurement of the reduction of [3-(4,5-dimethylthiazol-2-yl)-5-(3-carboxymethoxyphenyl)-2-(4-sulfophenyl)-2H-tetrazolium (MTS) to formazan. The absorbance of formazan at 490 nm was measured on a FLUOstar Omega microplate reader (BMG Labtech).
Cells were treated with different concentrations, ranging from 10 μM to 1 nM, of our compounds and incubated on a 96-well plate for 72 h. They were placed in light-proof boxes and exposed to the lighting conditions specified in the experiment for 72 h. Next, 10 μL of Promega CellTiter 96® AQueous One Solution Reagent was added to each well and incubated for further 4-7 hours. The absorbance at 490 nm was then recorded with a 96-well plate reader.
LED illumination. For illumination of the cells we used the cell disco system as previously described in the literature^[25]. 390 nm 5 mm LEDs were purchased from Roithner Lasertechnik. Cells were preirradiated for 1 min at 390 nm, followed by 100 ms pulses every 10 s in 96- or 6-well plates.

BRD2 = molecular target: T1, BRD2 (Homo sapiens, UniProt P25440); experiment: Western blot of BRD2 levels in RS4;11 cells; assay type: cell-based
T1 construct: endogenous in cells; host or cells: RS4;11 (ATCC CRL-1873)
Protocol: (§1) Next, the light dependence of targeted protein degradation was analyzed in RS4;11 cells by western blot analysis of the BET proteins BRD2-4 (FIG. 5). To this end, cells were treated with increasing concentrations of our lead compound, PHOTAC-I-3, for 4 h and pulse-irradiated with 390 nm light (100 ms every 10 s). […] The cereblon-dependent degradation was confirmed by a competition experiment (FIG. 5E), and further validated by siRNA knockdown of cereblon (FIG. 13).
One of the principal advantages of photoswitches over caged compounds is their reversibility.
(§2) Cells were incubated with different concentrations of selected compounds. They were placed in a light-proof box and preirradiated for 1 min at 390 nm followed by 100 ms pulses every 10 s or were kept in the dark for 4 h.
Cultured cells were collected by centrifugation and washed twice with cold PBS. The supernatant was removed and each cell pellet was lysed in 100 μL NP40-Cell-Lysis Buffer+0.1% SDS+1 mM PMSF+ protease inhibitor cocktail (Sigma Aldrich) for 30 min on ice, with vortexing at 10-minute intervals. Afterwards, cells were centrifuged at 13.000 rpm for 10 min at 4° C. Samples were stored on ice and the supernatant was collected for protein concentration determination using a Thermofisher Scientific Pierce™ Coomassie Plus (Bradford) Assay Kit.
The samples were diluted each with 5 μL Laemmli sample buffer Invitrogen (NuPAGE LDS Sample Buffer 4×) and 1 μL DTT, heated at 95° C. for 5 min. Respectively 20 μL of each sample was loaded in a lane of a Bio-Rad Mini-PROTEAN TGX precast Gel, 4-20%, used with tris-glycine SDS Running buffer. The gel ran 5 min at 50 V, then 35 min at 140 V. Next step was the electrotransfer to a polyvinylidene difluoride (PVDF) membrane which was carried out using an iBlot™ 2 Dry Blotting System set to the standard program. After the transfer, the membrane was washed with 25 mL TB ST for 5 min and subsequent incubated in 25 mL of blocking buffer (1×TBST+5% nonfat dry milk, Blotto, Santa Cruz Biotechnology) for 1 h at room temperature. […]

BRD2-4 = experiment: Western blot of BET proteins in RS4;11 cells, results stated for BRD2-4 together; assay type: cell-based, human
Protocol: as §1
The slight effect on c-MYC can be explained by inhibition of BRD4 with the (+)-JQ1 derivative PHOTAC-I-3 in the absence of targeted degradation.
as §2
Cultured cells were collected by centrifugation and washed twice with cold PBS. The supernatant was removed and each cell pellet was lysed in 100 μL NP40-Cell-Lysis Buffer+0.1% SDS+1 mM PMSF+ protease inhibitor cocktail (Sigma Aldrich) for 30 min on ice, with vortexing at 10-minute intervals. Afterwards, cells were centrifuged at 13.000 rpm for 10 min at 4° C. Samples were stored on ice and the supernatant was collected for protein concentration determination using a Thermofisher Scientific Pierce™ Coomassie Plus (Bradford) Assay Kit. […]

T1 sequence (P25440 whole entry): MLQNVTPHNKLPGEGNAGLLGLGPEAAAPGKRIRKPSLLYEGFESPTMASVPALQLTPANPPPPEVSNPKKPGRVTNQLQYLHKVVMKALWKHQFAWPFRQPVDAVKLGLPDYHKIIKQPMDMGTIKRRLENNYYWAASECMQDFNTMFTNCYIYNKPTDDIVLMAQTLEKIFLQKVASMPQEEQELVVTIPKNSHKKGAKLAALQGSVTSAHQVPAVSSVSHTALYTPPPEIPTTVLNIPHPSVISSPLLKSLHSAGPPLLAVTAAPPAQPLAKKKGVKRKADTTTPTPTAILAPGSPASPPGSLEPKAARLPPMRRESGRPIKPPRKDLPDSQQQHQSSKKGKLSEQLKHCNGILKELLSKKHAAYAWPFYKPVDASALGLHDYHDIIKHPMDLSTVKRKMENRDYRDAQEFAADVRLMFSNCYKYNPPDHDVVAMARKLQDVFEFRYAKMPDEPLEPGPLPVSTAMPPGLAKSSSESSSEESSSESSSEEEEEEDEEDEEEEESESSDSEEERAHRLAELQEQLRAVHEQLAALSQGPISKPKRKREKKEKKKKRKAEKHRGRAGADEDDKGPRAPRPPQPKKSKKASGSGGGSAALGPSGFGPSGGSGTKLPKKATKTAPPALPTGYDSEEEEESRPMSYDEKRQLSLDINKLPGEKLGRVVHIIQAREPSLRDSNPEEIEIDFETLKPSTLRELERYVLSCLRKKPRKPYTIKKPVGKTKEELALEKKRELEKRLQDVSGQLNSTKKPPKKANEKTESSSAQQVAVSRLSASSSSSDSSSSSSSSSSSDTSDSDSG

COc1cc(/N=N/c2cccc3c2CN(C2CCC(=O)NC2=O)C3=O)cc(OC)c1OCC(=O)NCCCCNC(=O)C[C@@H]1N=C(c2ccc(Cl)cc2)c2c(sc(C)c2C)-n2c(C)nnc21 (stereo partly drawn) [PHOTAC-I-3, 2-((S)-4-(4-chlorophenyl)-2,3,9-trimethyl-6H-thieno[3,2-f][1,2,4]triazolo[4,3-a][1,4]diazepin-6-yl)-N-(4-(2-(4-((E)-(2-(2,6-dioxopiperidin-3-yl)-1-oxoisoindolin-4-yl)diazenyl)-2,6-dimethoxyphenoxy)acetamido)butyl)acetamide]
EC50 difference dark vs 390 nM (RS4;11 lymphoblast cells): 7.1 fold | light dependence of activity in viability assay (RS4;11 lymphoblast cells; dark vs pulsed 390 nm irradiation): largest difference between light and dark activity | EC50 (RS4;11 lymphoblast cells; RS4-11, light or radiation study, irradiated with 390 nm light pulses (100 ms every 10 s)): 88.5 nM | EC50 (RS4;11 lymphoblast cells; RS4-11, in the dark): 631 nM | exposure time after which BRD2 is largely absent (BRD2; 1 μM, 390 nm pulse irradiation): 1.5 h | cellular BRD2 levels in rescue experiment (BRD2; 1 min 390 nm, then pulse irradiated with 525 nm): initially decreased but, subsequently, recovered faster than when left in the dark | BRD2 degradation (BRD2; 4 h, 390 nm, compared with BRD3 and BRD4): degraded to a lesser extent and within a narrower concentration range | BRD2-4 levels with CRL inhibitor MLN4924 (BRD2-4; 1 μM together with MLN4924 (2.5 μM), 390 nm irradiation): rescued BRD2-4 levels | BRD levels in the dark, time course (BRD2-4; 1 μM, in the dark): no effect on BRD levels
